ChEMBL document CHEMBL1143588, “Novel and potent 17beta-hydroxysteroid dehydrogenase type 1 inhibitors” (J Med Chem, 2005)

Columns and labels:
Format in all cases: cell-based
[1] = molecular target: T1, 17-beta-hydroxysteroid dehydrogenase type 2 (Homo sapiens) (UniProt P37059); assay: Inhibitory activity against 17 beta hydroxysteroid dehydrogenase type 2 at 10 uM in MDA-MB-231 cells
T1 sequence (whole entry): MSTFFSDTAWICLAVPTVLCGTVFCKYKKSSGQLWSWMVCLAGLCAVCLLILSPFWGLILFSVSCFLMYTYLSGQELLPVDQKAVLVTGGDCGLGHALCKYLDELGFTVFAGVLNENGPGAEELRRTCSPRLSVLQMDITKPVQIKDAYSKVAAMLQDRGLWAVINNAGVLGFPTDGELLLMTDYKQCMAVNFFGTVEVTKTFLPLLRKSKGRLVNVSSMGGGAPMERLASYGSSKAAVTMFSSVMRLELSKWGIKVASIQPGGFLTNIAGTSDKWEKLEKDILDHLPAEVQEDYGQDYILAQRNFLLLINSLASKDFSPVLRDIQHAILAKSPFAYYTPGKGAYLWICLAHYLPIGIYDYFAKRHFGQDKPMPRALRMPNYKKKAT

[2] = molecular target: T2, 17-beta-hydroxysteroid dehydrogenase type 1 (Homo sapiens) (UniProt P14061); assay: Inhibitory activity against 17 beta hydroxysteroid dehydrogenase type 1 at 10 uM in T47D cells
T2 sequence (whole entry): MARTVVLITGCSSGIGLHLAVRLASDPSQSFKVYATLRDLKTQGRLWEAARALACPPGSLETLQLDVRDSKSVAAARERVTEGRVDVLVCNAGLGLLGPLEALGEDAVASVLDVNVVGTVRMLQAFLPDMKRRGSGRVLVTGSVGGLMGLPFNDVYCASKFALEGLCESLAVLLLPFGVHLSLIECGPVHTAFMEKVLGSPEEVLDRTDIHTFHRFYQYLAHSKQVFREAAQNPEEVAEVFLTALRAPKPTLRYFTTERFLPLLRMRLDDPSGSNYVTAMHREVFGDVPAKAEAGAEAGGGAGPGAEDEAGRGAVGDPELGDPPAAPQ

[3] = molecular target: T3, 17-beta-hydroxysteroid dehydrogenase type 1 (Homo sapiens, UniProt P14061); assay: Inhibitory activity against 17 beta hydroxysteroid dehydrogenase type 1 in T47D cells
T3 sequence (P14061 whole entry): T2 sequence (whole entry)

Row | Structure (SMILES) | inhibition [1] | inhibition [2] | IC50 [3]
1 | COc1cc2c(cc1O)CCC1[C@@H]2CC[C@]2(C)C(=O)C(CC(=O)NCc3cccnc3)C[C@@H]12 (single isomer, unassigned) | 0% | 96% | 290 nM
2 | C[C@]12CC[C@@H]3c4ccc(O)cc4CCC3[C@@H]1CC(CC(=O)NCc1cccnc1)C2=O (single isomer, unassigned) | 26% | 97% | 37 nM
3 | CCc1cc2c(cc1O)CCC1[C@@H]2CC[C@]2(C)C(=O)C(CC(=O)NCc3cccnc3)C[C@@H]12 (single isomer, unassigned) | -5% | 99% | 27 nM
